The target in series [1] is T1, Genome polyprotein (Coxsackievirus B3 (strain Nancy), UniProt P03313). The series is described as follows: Inhibition of recombinant Coxsackievirus B3 3C protease expressed in Escherichia coli BL21 (DE3) preincubated for 5 mins followed by addition of NMA-EALFQGPPVK-DNP-rrr-NH2 as substrate measured up to 2 hrs by FRET-based enzyme assay.
A further series deals with Coxsackievirus B3. The series can be described thus: Antiviral activity against Coxsackievirus B3 infected in human HeLa cells at 10 uM measured after 20 to 24 hrs by CCK8 assay. The series is classed as functional. As to conditions: Enterovirus B. On the technique in general: Tetrazolium dyes change colour on reduction, which living cells bring about.
The nature of series [2]: Cytotoxicity against human HeLa cells assessed as reduction in cell viability at 10 and 100 uM by CCK8 assay. The format is toxicity, cell-based.
A short description of series [3]: Apparent permeability in MDCK cells at 50 uM and measured after 30 mins by LC-MS/MS analysis. The series is classed as ADME, cell-based, Canis lupus familiaris. The following applies: dog.
In series [4] the target is T1, Genome polyprotein. The series is described as follows: Inhibition of recombinant Coxsackievirus B3 3C protease expressed in Escherichia coli BL21 (DE3) preincubated for 5 mins followed by addition of NMA-EALFQGPPVK-DNP-rrr-NH2 as substrate measured every 10 mins for 2 hrs by FRET-based enzyme assay.
Series [5] has as its target T1, Genome polyprotein. The series can be described thus: Inhibition of recombinant Coxsackievirus B3 C-terminal 6His-tagged 3C protease expressed in Escherichia coli BL21 preincubated for 20 mins followed by addition of fluorogenic peptide as substrate by Cheng-Prusoff equation analysis.
The target in series [6] is T1, Genome polyprotein. The series can be described thus: Competitive inhibition of recombinant Coxsackievirus B3 3C protease expressed in Escherichia coli BL21 (DE3) preincubated with protein followed by addition of NMA-EALFQGPPVK-DNP-rrr-NH2 as substrate measured every 5 mins for 2 hrs by Dixon plot analysis.
Series [7] concerns the target Genome polyprotein (Coxsackievirus B3 (strain Nancy)) (UniProt P03313). The series can be described thus: Non-competitive inhibition of recombinant Coxsackievirus B3 3C protease expressed in Escherichia coli BL21 (DE3) preincubated with protein followed by addition of NMA-EALFQGPPVK-DNP-rrr-NH2 as substrate measured every 5 mins for 2 hrs by Michaelis-Menten plot analysis.

Series [8] shares this target. The series can be described thus: Mixed-type inhibition of recombinant Coxsackievirus B3 3C protease expressed in Escherichia coli BL21 (DE3) preincubated with protein followed by addition of NMA-EALFQGPPVK-DNP-rrr-NH2 as substrate measured every 5 mins for 2 hrs by Lineweaver-Burk plot analysis.

Activity calls are given as the source filed them. No cut-off for these calls is given here. A value given as a limit tells only on which side of the number the result lay.

The values that follow come from ChEMBL document CHEMBL3856195, “2,3,4-Trihydroxybenzyl-hydrazide analogues as novel potent coxsackievirus B3 3C protease inhibitors” (Eur J Med Chem, 2016).

T1 sequence (P03313 1541-1723 limits assumed): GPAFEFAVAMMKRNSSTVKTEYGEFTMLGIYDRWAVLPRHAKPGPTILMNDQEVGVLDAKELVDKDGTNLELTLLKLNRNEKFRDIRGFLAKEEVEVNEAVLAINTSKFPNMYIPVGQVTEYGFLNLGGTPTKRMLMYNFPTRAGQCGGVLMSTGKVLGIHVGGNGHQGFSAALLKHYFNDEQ
Genome polyprotein (Coxsackievirus B3 (strain Nancy)), sequence (P03313 whole entry): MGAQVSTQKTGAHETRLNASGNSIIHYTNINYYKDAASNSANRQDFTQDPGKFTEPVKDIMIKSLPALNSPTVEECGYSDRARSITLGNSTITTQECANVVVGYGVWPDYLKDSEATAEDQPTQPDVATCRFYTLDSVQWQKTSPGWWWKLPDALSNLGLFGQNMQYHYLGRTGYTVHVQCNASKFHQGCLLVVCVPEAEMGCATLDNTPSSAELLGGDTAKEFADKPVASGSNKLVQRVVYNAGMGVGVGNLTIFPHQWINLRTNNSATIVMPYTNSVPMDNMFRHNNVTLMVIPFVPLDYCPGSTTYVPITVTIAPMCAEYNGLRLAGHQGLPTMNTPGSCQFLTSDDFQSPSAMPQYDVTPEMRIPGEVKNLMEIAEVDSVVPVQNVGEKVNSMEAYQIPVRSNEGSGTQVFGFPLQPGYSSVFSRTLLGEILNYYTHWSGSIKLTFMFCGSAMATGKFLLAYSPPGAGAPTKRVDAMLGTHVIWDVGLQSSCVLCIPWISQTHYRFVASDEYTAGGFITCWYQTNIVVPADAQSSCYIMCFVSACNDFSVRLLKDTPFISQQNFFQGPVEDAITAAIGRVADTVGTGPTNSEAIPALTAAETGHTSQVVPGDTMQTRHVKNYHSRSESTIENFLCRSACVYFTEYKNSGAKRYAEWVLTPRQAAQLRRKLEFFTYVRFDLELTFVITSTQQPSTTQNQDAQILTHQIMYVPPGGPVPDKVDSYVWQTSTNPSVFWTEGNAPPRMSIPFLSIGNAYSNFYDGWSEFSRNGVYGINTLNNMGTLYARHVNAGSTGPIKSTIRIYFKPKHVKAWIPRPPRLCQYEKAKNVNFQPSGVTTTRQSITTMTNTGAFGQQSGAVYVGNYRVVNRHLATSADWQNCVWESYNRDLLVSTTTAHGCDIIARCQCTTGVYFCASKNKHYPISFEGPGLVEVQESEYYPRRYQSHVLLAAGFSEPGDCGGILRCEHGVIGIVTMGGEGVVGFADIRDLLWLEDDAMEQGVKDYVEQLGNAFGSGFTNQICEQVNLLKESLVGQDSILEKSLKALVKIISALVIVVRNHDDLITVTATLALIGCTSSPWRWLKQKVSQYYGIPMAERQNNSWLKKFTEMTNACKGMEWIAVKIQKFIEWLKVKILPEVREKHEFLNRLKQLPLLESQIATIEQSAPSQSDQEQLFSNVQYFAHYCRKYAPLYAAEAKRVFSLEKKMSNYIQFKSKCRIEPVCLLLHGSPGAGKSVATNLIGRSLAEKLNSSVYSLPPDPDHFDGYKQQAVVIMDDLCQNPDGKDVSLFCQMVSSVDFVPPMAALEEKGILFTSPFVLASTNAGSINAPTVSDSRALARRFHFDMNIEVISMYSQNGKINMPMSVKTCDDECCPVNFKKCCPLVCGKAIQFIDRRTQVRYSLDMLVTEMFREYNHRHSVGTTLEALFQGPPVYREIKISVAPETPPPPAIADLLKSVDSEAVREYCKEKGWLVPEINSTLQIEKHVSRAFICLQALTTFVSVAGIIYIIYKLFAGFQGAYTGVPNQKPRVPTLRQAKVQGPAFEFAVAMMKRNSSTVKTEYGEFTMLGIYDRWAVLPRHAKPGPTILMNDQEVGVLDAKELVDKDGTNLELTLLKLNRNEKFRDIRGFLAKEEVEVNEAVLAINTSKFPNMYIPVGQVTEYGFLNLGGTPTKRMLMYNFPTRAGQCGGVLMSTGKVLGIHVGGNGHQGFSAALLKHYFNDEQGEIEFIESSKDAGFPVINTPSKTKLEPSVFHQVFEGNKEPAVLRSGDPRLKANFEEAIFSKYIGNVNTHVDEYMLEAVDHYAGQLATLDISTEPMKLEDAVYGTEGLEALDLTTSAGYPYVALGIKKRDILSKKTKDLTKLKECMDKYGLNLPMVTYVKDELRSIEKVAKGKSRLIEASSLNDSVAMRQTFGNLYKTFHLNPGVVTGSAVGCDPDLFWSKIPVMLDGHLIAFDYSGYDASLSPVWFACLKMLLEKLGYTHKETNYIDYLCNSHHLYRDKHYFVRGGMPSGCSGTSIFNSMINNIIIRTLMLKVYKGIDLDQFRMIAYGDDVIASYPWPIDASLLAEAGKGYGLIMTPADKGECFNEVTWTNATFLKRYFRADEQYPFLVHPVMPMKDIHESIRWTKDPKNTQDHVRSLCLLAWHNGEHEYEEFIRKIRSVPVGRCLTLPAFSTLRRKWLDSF

For the compound `O=C(CCc1ccc(F)cc1)NNCc1ccc(O)c(O)c1O`, the IC50 on Genome polyprotein [1] was 200 nM.

`O=C(CCCc1ccc(O)cc1)NNCc1ccc(O)c(O)c1O`: the IC50 on Genome polyprotein [1] was determined as 100 nM.

Take `O=C(CCc1ccc(O)cc1)NNCc1ccc(O)c(O)c1O`: the IC50 at Genome polyprotein [1] came to 80 nM.

On to `O=C(N/N=C/c1ccc(O)cc1O)c1ccccc1`, for which the half-maximal inhibitory concentration (IC50) on Genome polyprotein [1] was greater than 50000 nM.

For `CS(=O)(=O)c1ccc(C(=O)N/N=C/c2ccc(O)c(O)c2O)cc1`, the IC50 on Genome polyprotein [1] came out at 890 nM.

Regarding `O=C(CCCCc1ccccc1)NNCc1ccc(O)c(O)c1O`, the IC50 on Genome polyprotein [1] is 190 nM.

With `O=C(N/N=C/c1ccc(O)cc1)c1ccccc1`, the IC50 on Genome polyprotein [1] was greater than 50000 nM.

In the case of `O=C(Cc1ccccc1)NNCc1ccc(O)c(O)c1O`, the IC50 on Genome polyprotein [1] amounted to 410 nM.

For `O=C(N/N=C/c1ccccc1)c1ccccc1`, at Genome polyprotein [1], the IC50 is greater than 50000 nM.

In the case of `O=C(N/N=C/c1cc(O)cc(O)c1)c1ccccc1`, on Genome polyprotein [1], the IC50 was greater than 50000 nM.

With `O=C(Cc1ccc(F)cc1)N/N=C/c1ccc(O)c(O)c1O`, the IC50 at Genome polyprotein [1] turned out to be 660 nM.

`O=C(CCCc1ccc(F)cc1)N/N=C/c1ccc(O)c(O)c1O`: on Genome polyprotein [1], the IC50 worked out at 640 nM.

The compound `CCCCC(=O)Oc1c(O)ccc(CNNC(=O)CCCCc2ccc(O)cc2)c1O` showed an inhibition at 10 µM with Coxsackievirus B3 of 43%. For the same compound, the IC50 on Genome polyprotein [1] worked out at 870 nM. For the same compound, the Activity entry in [2] was “Non-Toxic”.

With `O=C(Cc1ccc(O)cc1)N/N=C/c1ccc(O)c(O)c1O`, at Genome polyprotein [1], the IC50 turned out to be 180 nM.

With `CS(=O)(=O)c1ccc(C(=O)NNCc2ccc(O)c(O)c2O)cc1`, the IC50 at Genome polyprotein [1] turned out to be 770 nM.

Turning to `O=C(CCCCc1ccc(F)cc1)NNCc1ccc(O)c(O)c1O`, at Genome polyprotein [1], the half-maximal inhibitory concentration (IC50) is 230 nM.

As to `O=C(N/N=C/c1ccc(O)c(O)c1O)c1ccc(Cl)cc1`, the IC50 at Genome polyprotein [1] amounted to 590 nM.

Turning to `O=C(CCCc1ccc(F)cc1)NNCc1ccc(O)c(O)c1O`, at Genome polyprotein [1], the IC50 came to 400 nM.

In the series with Coxsackievirus B3, `CCCCC(=O)Oc1c(O)ccc(/C=N/NC(=O)c2ccc(O)cc2)c1O` yielded an inhibition at 10 µM of 42%. The IC50 at Genome polyprotein [1] is 1210 nM. Besides, the Activity result in [2] is “Non-Toxic”.

`O=C(Cc1ccccc1)N/N=C/c1ccc(O)c(O)c1O`: the half-maximal inhibitory concentration (IC50) on Genome polyprotein [1] amounted to 750 nM.

As for `O=C(CCCCc1ccc(O)cc1)N/N=C/c1ccc(O)c(O)c1O`, the Papp at 0.5 h, 50 µM in series [3] turned out to be 11 ×10⁻⁶ cm/s. Also, the IC50 at Genome polyprotein [1] was found to be 110 nM. For the same compound, the Activity result in series [2] is “Non-Toxic”.

In the case of `Cc1cc(C(=O)N[C@H](C(=O)N[C@@H](Cc2ccc(F)cc2)C(=O)NNCc2ccc(O)c(O)c2O)C(C)C)no1`, the IC50 at Genome polyprotein [1] worked out at 230 nM.

Consider `NC(CO)C(=O)N/N=C/c1ccc(O)c(O)c1O` (stereo not drawn), for which, at Genome polyprotein [4], the IC50 is 2700 nM.

Take `CCCCC(=O)Oc1c(O)ccc(/C=N/NC(=O)CCCCc2ccc(O)cc2)c1O`: in the series with Coxsackievirus B3, at 10 µM the inhibition was 62%. The Papp at 0.5 h, 50 µM in series [3] was found to be 25 ×10⁻⁶ cm/s. In addition, the IC50 on Genome polyprotein [1] stood at 970 nM. Besides, the Activity entry in series [2] is listed as “Non-Toxic”.

For the compound `CC(C)(C)OC(=O)NC(Cc1ccc(F)cc1)C(=O)N/N=C/c1ccc(O)c(O)c1O` (stereo not drawn), at Genome polyprotein [1], the IC50 worked out at 890 nM.

As to `O=C(NNCc1ccc(O)c(O)c1O)c1ccc(Br)cc1`, at Genome polyprotein [1], the IC50 stood at 210 nM.

`O=C(CCCc1ccccc1)NNCc1ccc(O)c(O)c1O`: the IC50 on Genome polyprotein [1] amounted to 340 nM.

As for `CC(=O)/C=C/[C@H](C[C@@H]1CNCC1=O)NC(=O)[C@H](CC(C)C)NC(=O)[C@H](CNC(=O)C(C)(C)C)NC(=O)OCc1ccccc1`, the Ki at Genome polyprotein [5] came to 800 nM.

As to `CC(C)(C)OC(=O)NC(Cc1ccc(O)cc1)C(=O)N/N=C/c1ccc(O)c(O)c1O` (stereo not drawn), the IC50 at Genome polyprotein [1] turned out to be 540 nM.

On to `O=C(Cc1ccc(F)cc1)NNCc1ccc(O)c(O)c1O`, for which the half-maximal inhibitory concentration (IC50) on Genome polyprotein [1] is 340 nM.

For the compound `CS(=O)(=O)c1cccc(/C=N/NC(=O)c2ccccc2)c1`, the IC50 at Genome polyprotein [1] was greater than 50000 nM.

With `O=C(N/N=C/c1cccc(O)c1O)c1ccccc1`, the IC50 on Genome polyprotein [1] is greater than 50000 nM.

Consider `O=C(CCCc1ccc(O)cc1)N/N=C/c1ccc(O)c(O)c1O`, for which the IC50 on Genome polyprotein [1] was determined as 160 nM.

Regarding `O=C(NNCc1ccc(O)c(O)c1O)c1ccc(O)cc1`, at Genome polyprotein [1], the IC50 is 170 nM. Also, the Activity result in [2] is listed as “Non-Toxic”.

With `O=C(Cc1ccc(O)cc1)NNCc1ccc(O)c(O)c1O`, the IC50 on Genome polyprotein [1] was found to be 110 nM.

Turning to `O=C(NNCc1ccc(O)c(O)c1O)c1ccc(Cl)cc1`, the half-maximal inhibitory concentration (IC50) on Genome polyprotein [1] is 430 nM.

Consider `O=C(NNCc1ccc(O)c(O)c1O)c1ccccc1`, for which the IC50 at Genome polyprotein [1] was found to be 650 nM.

For `NC(CO)C(=O)NNCc1ccc(O)c(O)c1O` (stereo not drawn) [BENSERAZIDE], at Genome polyprotein [4], the 50% inhibitory concentration (IC50) was found to be 2400 nM.

In the case of `O=C(CCc1ccccc1)N/N=C/c1ccc(O)c(O)c1O`, at Genome polyprotein [1], the IC50 is 690 nM.

Turning to `O=C(NNCc1ccc(O)c(O)c1O)c1ccc(F)cc1`, at Genome polyprotein [1], the IC50 came to 650 nM.

Regarding `CS(=O)(=O)c1ccc(/C=N/NC(=O)c2ccccc2)cc1`, at Genome polyprotein [1], the half-maximal inhibitory concentration (IC50) is greater than 50000 nM.

With `CC(C)(C)OC(=O)NC(Cc1ccc(O)cc1)C(=O)NNCc1ccc(O)c(O)c1O` (stereo not drawn), the IC50 at Genome polyprotein [1] amounted to 270 nM.

As to `CC(C)(C)OC(=O)NC(Cc1ccc(F)cc1)C(=O)NNCc1ccc(O)c(O)c1O` (stereo not drawn), on Genome polyprotein [1], the IC50 is 780 nM.

For the compound `O=C(N/N=C/c1ccccc1O)c1ccccc1` [SALICYLALDEHYDE BENZOYL HYDRAZONE], at Genome polyprotein [1], the IC50 is greater than 50000 nM.

Turning to `CCCCC(=O)Oc1c(O)ccc(CNNC(=O)c2ccc(O)cc2)c1O`, the inhibition at 10 µM in the series with Coxsackievirus B3 turned out to be 38%. For the same compound, the IC50 on Genome polyprotein [1] was 1020 nM.

As for `O=C(N/N=C/c1ccc(O)c(O)c1O)c1ccc(Br)cc1`, at Genome polyprotein [1], the IC50 is 460 nM.

`O=C(NNCc1c(O)cc(O)cc1O)c1ccccc1`: at Genome polyprotein [1], the IC50 came to 770 nM.

For the compound `O=C(N/N=C/c1c(O)cc(O)cc1O)c1ccccc1`, the 50% inhibitory concentration (IC50) on Genome polyprotein [1] was found to be 1070 nM.

In the case of `O=C(CCc1ccccc1)NNCc1ccc(O)c(O)c1O`, on Genome polyprotein [1], the IC50 was 320 nM.

As to `O=C(N/N=C/c1ccc(O)c(O)c1O)c1ccccc1`, at Genome polyprotein [1], the IC50 came to 970 nM.

Turning to `O=C(CCCCc1ccc(F)cc1)N/N=C/c1ccc(O)c(O)c1O`, the IC50 on Genome polyprotein [1] was determined as 470 nM.

As to `O=C(CCCCc1ccccc1)N/N=C/c1ccc(O)c(O)c1O`, the IC50 on Genome polyprotein [1] is 440 nM.

As to `O=C(N/N=C/c1ccc(O)c(O)c1)c1ccccc1`, the IC50 at Genome polyprotein [1] is greater than 50000 nM.

With `O=C(N/N=C/c1cc(O)ccc1O)c1ccccc1`, the IC50 on Genome polyprotein [1] was determined as 5510 nM.

In the case of `Cc1cc(C(=O)N[C@H](C(=O)N[C@@H](Cc2ccc(F)cc2)C(=O)N/N=C/c2ccc(O)c(O)c2O)C(C)C)no1`, the IC50 on Genome polyprotein [1] came to 610 nM.

`O=C(CCc1ccc(F)cc1)N/N=C/c1ccc(O)c(O)c1O`: the IC50 at Genome polyprotein [1] is 580 nM.

In the case of `O=C(N/N=C/c1ccc(O)c(O)c1O)c1ccc(F)cc1`, on Genome polyprotein [1], the IC50 was 870 nM.

On to `O=C(CCc1ccc(O)cc1)N/N=C/c1ccc(O)c(O)c1O`, for which, at Genome polyprotein [1], the IC50 came out at 120 nM.

Consider `O=C(CCCc1ccccc1)N/N=C/c1ccc(O)c(O)c1O`, for which, at Genome polyprotein [1], the IC50 worked out at 710 nM.

Consider `O=C(CCCCc1ccc(O)cc1)NNCc1ccc(O)c(O)c1O`, for which, at Genome polyprotein [6], the Ki was 324 nM. The inhibition entry in [7] was “Dose-dependent effect”. Also, the IC50 on Genome polyprotein [1] was determined as 70 nM. Moreover, the inhibition result in [8] is “Active”. In [2], the Activity result is “Non-Toxic”.

Consider `O=C(N/N=C/c1cccc(O)c1)c1ccccc1`, for which the IC50 at Genome polyprotein [1] was greater than 50000 nM.

On to `O=C(N/N=C/c1ccc(O)c(O)c1O)c1ccc(O)cc1`, for which the IC50 at Genome polyprotein [1] came out at 320 nM. Besides, the Activity result in series [2] is recorded as “Non-Toxic”.

The term IC50 denotes the concentration needed to halve the response being measured. A word on the inhibition: it is how much of the control response was suppressed. A word on the Papp: it is the rate of passage across a membrane or cell layer, normalised by area and donor concentration. In general, Ki refers to the dissociation constant of the complex between target and ligand, obtained from inhibition or displacement.
